Measured values reported in patent publication US6287840A (Axys Pharmaceuticals, Inc., priority 1999, dated 2001).

Tests used:
[1] = biological target: T1, Cathepsin L from rat liver (Rattus norvegicus, UniProt P07154); experiment: Inhibition of cathepsin L, Z-Phe-Arg-AMC fluorescence progress curves; type: biochemical; details: for k/KI (kirr/KI): values without asterisk
T1 construct: Cathepsin L from rat liver; from tissue; host or cells: rat liver
Description: (§1) Stock solutions of the various inhibitors (10 mM) were made in DMF; dilutions were made in the same solvent. Cathepsin L from rat liver, (see Mason et al., Biochem. J. 226:233-241 (1985)) was approximately 1 nM in the assay. The assay buffer contained 50 mM phosphate at pH 6:2, 2.5 mM dithiothreitol (DTT), and 2.5 mM ethylenediaminetetraacetic acid (EDTA). The substrate for cathepsin L was 5 μM Z-Phe-Arg-AMC (carbobenzyloxyphenylalanylarginylaminomethylcoumarin). The assays were initiated at 25° C. by addition of enzyme to 2 mL of assay buffer containing the substrate and the various inhibitors (30-0.001 μM). The increase in fluorescence at 460 nm with excitation at 380 nm was followed with time. Inactivation of cathepsin L was indicated by a downward curve in the increase in fluorescence with time. In the absence of inhibitors, the enzymatic production of free AMC was linear throughout the time course of inactivation examined. Data points were collected over at least 3 half-times of inactivation. The inhibition progress curves were analyzed using non-linear curve fitting software to compute the kobs values. Approximate second-order inactivation constants (kobs /[I]) were calculated for all compounds. For selected inhibitors, plots of 1/[I] vs. 1/kobs yielded the true constants kirr, KI, and kirr/KI and were corrected for the presence of substrate by dividing KI (app.) by (1+[S]/Km).

[2] = biological target: cruzain, from T. cruzi (Trypanosoma cruzi, UniProt P25779); experiment: Inhibition of cruzain, as for cathepsin L; type: biochemical; details: for k/KI (kirr/KI): values without asterisk
cruzain, from T. cruzi, sequence (P25779 123-337 limits assumed): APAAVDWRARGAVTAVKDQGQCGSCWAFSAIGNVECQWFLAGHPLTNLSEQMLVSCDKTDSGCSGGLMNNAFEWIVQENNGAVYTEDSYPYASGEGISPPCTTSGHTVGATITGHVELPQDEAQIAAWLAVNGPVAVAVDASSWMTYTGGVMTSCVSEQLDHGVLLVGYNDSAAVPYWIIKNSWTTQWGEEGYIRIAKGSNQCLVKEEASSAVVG
Description: as §1
Inhibition of cruzain, from T. cruzi, (see Eakin et at., J. Biol. Chem. 268(9): 6115-6118 (1993)) proceeded exactly as for cathepsin L, outlined above, using an enzyme concentration of 1 nM.

[3] = test system: calpain; experiment: Inhibition (inactivation) of calpain, Suc-Leu-Tyr-AMC; type: biochemical; details: values marked * (or %), pH 7.5, 5 mM CaCl2, 25° C.
Description: The inhibitors were tested against calpain at 1 or 2% as for the other enzymes. The reaction conditions were 50 mM Tris, pH 7.5, 5 mM CaCl2, 2.5 mM DTT, assayed at 25° C. The substrate was 100 μM Suc-Leu-Tyr-AMC.

[4] = test system: Leishmania donovani amastigote infected mouse peritoneal macrophages; experiment: In vitro antiprotozoal activity, Leishmania donovani; type: cell-based; details: Leishmania donovani, Peritoneal macrophage, read-out: percentage inhibition, L. donovani
Description: (§2) In this table, the in vitro antiprotozoal activities of the indicated compounds were measured as percentage inhibition of Leishmania donovani amastigote infecteda mouse peritoneal macrophages, Trypanosoma cruzi amastigote infected macrophages, and Trypanosoma brucei extracellular bloodstream forms.

[5] = test system: Trypanosoma cruzi amastigote infected macrophages; experiment: In vitro antiprotozoal activity, Trypanosoma cruzi; type: cell-based; details: Trypanosoma cruzi, Macrophage, read-out: percentage inhibition, T. cruzi
Description: as §2

[6] = test system: Trypanosoma brucei extracellular bloodstream forms; experiment: In vitro antiprotozoal activity, Trypanosoma brucei; type: cell-based; details: Trypanosoma brucei, read-out: percentage inhibition, T. brucei
Description: as §2

[7] = biological target: T2, Cathepsin B from human placenta (Homo sapiens, UniProt P07858); experiment: Inhibition of cathepsin B, Z-Arg-Arg-AMC fluorescence progress curves; type: biochemical; details: for k/KI (kirr/KI): values without asterisk
T2 construct: Cathepsin B from human placenta, obtained from Sigma; purchased Sigma; host or cells: human placenta (tissue)
Description: Stock solutions of the various inhibitors (10 mM) were made in DMF; dilutions were made in the same solvent. Cathepsin B from human placenta, obtained from Sigma, was approximately 10 nM in the assay. The assay buffer contained 50 mM phosphate at pH 6.2, 2.5 mM dithiothreitol (DTT), and 2.5 mM ethylenediaminetetraacetic acid (EDTA). The substrate for cathepsin B was 50 μM Z-Arg-Arg-AMC (carbobenzyloxyarginylarginylaminomethylcoumarin). The assays were initiated at 25° C. by addition of enzyme to 2 mL of assay buffer containing the substrate and the various inhibitors (30-0.001 (μM). The increase in fluorescence at 460 nm with excitation at 380 nm was followed with time, and the assay was linear throughout the range observed. Inactivation of cathepsin B was indicated by a downward curve in the increase in fluorescence with time. In the absence of inhibitors, the enzymatic production of free AMC was linear throughout the time course of inactivation examined. Data points were collected over at least 3 half-times of inactivation, and in duplicate. The inhibition progress curves were analyzed using non-linear curve fitting software to compute the kobs values. Approximate second-order inactivation constants (kobs /[I]) were calculated for all compounds. For selected inhibitors, plots of 1/[I] vs. 1/kobs yielded the true constants kirr, KI, and kirr /KI, and were corrected for the presence of substrate by dividing KI (app.) by {1+[S]/Km }.

[8] = biological target: T3, Cloned cathepsin S (Homo sapiens, UniProt P25774); experiment: Inhibition of cathepsin S, Z-Val-Val-Arg-AMC fluorescence progress curves; type: biochemical; details: for k/KI (kirr/KI): values without asterisk
T3 construct: made in house
T3 sequence (P25774 115-331): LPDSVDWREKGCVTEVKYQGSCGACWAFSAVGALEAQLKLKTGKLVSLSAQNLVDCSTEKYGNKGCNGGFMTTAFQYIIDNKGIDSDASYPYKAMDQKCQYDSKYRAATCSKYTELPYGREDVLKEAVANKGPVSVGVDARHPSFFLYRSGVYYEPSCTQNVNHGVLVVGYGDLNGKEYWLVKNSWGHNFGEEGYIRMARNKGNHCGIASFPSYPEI
Description: Stock solutions of the various inhibitors (10 mM) were made in DMF; dilutions were made in the same solvent. Cloned cathepsin S, (see Bromme et al., J. Biol. Chem. 268(&): 4832-4838 (1993)) was less than 1 nM in the assay. The assay buffer contained 100 mM phosphate at pH 6.5, 0.01% Triton, 2.5 mM dithiothreitol (DTT), and 2.5 mM ethylenediaminetetraacetic acid (EDTA). The substrate for cathepsin S was 10 μM Z-Val-Val-Arg-AMC (carbobenzyloxyvalinylvalinylarginylaminomethylcoumarin). The assays were initiated at 25° C. by addition of enzyme to 2 mL of assay buffer containing the substrate and the various inhibitors (30-0.001 μM). The increase in fluorescence at 460 nm with excitation at 380 nm was followed with time. Inactivation of cathepsin S was indicated by a downward curve in the increase in fluorescence with time. In the absence of inhibitors, the enzymatic production of free AMC was linear throughout the time course of inactivation examined. Data points were collected over at least 3 half-times of inactivation. The inhibition progress curves were analyzed using non-linear curve fitting software to compute the kobs values. Approximate second-order inactivation constants (kobs /[I]) were calculated for all compounds. For selected inhibitors, plots of 1/[I] vs. 1/kobs yielded the true constants kirr, KI, and kirr /KI, and were corrected for the presence of substrate by dividing KI (app.) by {1+[S]/Km}.

[9] = values marked *, 25° C., pH 6.2, read-out: kobs /[I]* (approximate second-order inactivation constant)
[10] = values marked *, 25° C., pH 6.2
[11] = values marked *, 25° C., pH 6.5

T1 sequence (P07154 114-288 limits assumed): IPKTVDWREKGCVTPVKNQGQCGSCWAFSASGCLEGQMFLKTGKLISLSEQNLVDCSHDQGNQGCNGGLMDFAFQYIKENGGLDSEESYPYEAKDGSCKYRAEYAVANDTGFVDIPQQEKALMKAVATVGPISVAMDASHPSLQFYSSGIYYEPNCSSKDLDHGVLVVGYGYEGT
T1 sequence (P07154 291-334 limits assumed): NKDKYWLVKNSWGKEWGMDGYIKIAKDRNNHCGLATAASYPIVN

## CC(=O)N[C@@H](CC(C)C)C(=O)N[C@@H](CC(C)C)C(=O)N[C@H](/C=C/S(=O)(=O)c1ccccc1)CCS(C)(=O)=O [Ac-Leu-Leu-Met(O2)VSPh, (S)-(E)-3-(acetylleucylleucyl)amino-5-methylsulfonyl-1-phenylsulfonyl-1-pentene]
[1]; 25° C., pH 6.2
  k/KI (kirr/KI): 1,500,000 M^-1 sec^-1
[2]
  k/KI (kirr/KI): 104,000 M^-1 sec^-1
[3]
  kobs /[I]*: 8,400 M^-1 sec^-1

## C[C@H](NC(=O)OC(C)(C)C)C(=O)N[C@H](/C=C/S(C)(=O)=O)Cc1ccccc1 [Boc-Ala-PheVSMe, (S)-(E)-3-(tert-2butoxycarbonylalanyl)amino-1-methylsulfonyl-4-phenyl-1-butene]
[3]
  kobs /[I]*: 60 M⁻¹ s⁻¹

## Cl.NCC(=O)N[C@H](/C=C/S(=O)(=O)c1ccccc1)Cc1ccccc1 [HCl.Gly-Phe-VSPh, (S)-(E)-3-glycylamino-4-phenyl-1-phenylsulfonyl-1-butene hydrochloride]
[3]
  kobs /[I]*: < 50 M⁻¹ s⁻¹
[4]; 10 uM
  inhibition at 10 µM: 0%
[4]; 30 uM
  inhibition at 30 µM: 0%
[4]; 90 uM
  inhibition at 90 µM: 4.02%
[5]; 3 uM
  inhibition at 3 µM: 0%
[5]; 10 uM
  inhibition at 10 µM: 0%
[5]; 30 uM
  inhibition at 30 µM: 0.1%
[5]; 90 uM
  inhibition at 90 µM: 0%
[6]; 3 uM
  inhibition at 3 µM: 0%
[6]; 10 uM
  inhibition at 10 µM: 0%
[6]; 30 uM
  inhibition at 30 µM: 0%
[6]; 90 uM
  inhibition at 90 µM: 0%

## COC(=O)CCC(=O)N[C@@H](Cc1ccccc1)C(=O)N[C@H](/C=C/S(=O)(=O)c1ccccc1)CCc1ccccc1 [MeOSuc-Phe-HphVSPh, (S)-(E)-3-(carbomethoxypropionylphenylalanyl)amino-5-phenyl-1-phenylsulfonyl-1-pentene]
[7]; [9]
  kinact/KI: 870 M⁻¹ s⁻¹
[1]; [9]
  kinact/KI: 47000 M⁻¹ s⁻¹
[8]; values marked *, 25° C., pH 6.5, read-out: kobs /[I]* (approximate second-order inactivation constant)
  kinact/KI: 740000 M⁻¹ s⁻¹
[2]; pH 6.2, values marked *, read-out: kobs /[I]* (approximate second-order inactivation constant)
  kinact/KI: 34000 M⁻¹ s⁻¹

## O=C(N[C@H](/C=C/S(=O)(=O)c1ccc2ccccc2c1)CCc1ccccc1)C(Cc1ccc2ccccc2c1)NC(=O)N1CCOCC1 (stereo partly drawn) [Mu-Np-HphVSNp, (S)-(E)-3-(4-morpholinecarbonyl-2-naphthylalanyl)amino-1-(2-napthylsulfonyl)-5-phenyl-1-pentene]
[7]; [10]
  kobs /[I]* (approximate second-order inactivation constant): 184,000 M^-1 sec^-1
[1]
  kirr: 0.14 s⁻¹
[1]; corrected for substrate
  Ki: 0.018 µM
[1]; 25° C., pH 6.2
  k/KI (kirr/KI): 9,200,000 M^-1 sec^-1
[8]
  kirr: 0.10 s⁻¹
[8]; corrected for substrate
  Ki: 0.0018 µM
[8]; 25° C., pH 6.5
  k/KI (kirr/KI): 56,000,000 M^-1 sec^-1
[2]
  Ki: 0.025 µM
  kirr: 0.044 s⁻¹
  k/KI (kirr/KI): 1,770,000 M^-1 sec^-1

## O=C(N[C@H](/C=C/S(=O)(=O)c1ccc2ccccc2c1)CCc1ccccc1)[C@H](Cc1ccccc1)NC(=O)N1CCOCC1 [Mu-Phe-HphVSNp, (S)-(E)-3-(4-morpholinecarbonylphenylalanyl)amino-1-(2-napthylsulfonyl)-5-phenyl-1-pentene]
[7]
  kirr: 0.087 s⁻¹
[7]; corrected for substrate
  Ki: 1.4 µM
[7]; 25° C., pH 6.2
  k/KI (kirr/KI): 63,700 M^-1 sec^-1
[8]; [11]
  kobs /[I]* (approximate second-order inactivation constant): > 5,400,000 M^-1 sec^-1
[2]
  Ki: 0.11 µM
  kirr: 0.08 s⁻¹
  k/KI (kirr/KI): 740,000 M^-1 sec^-1

## CSCC[C@@H](/C=C/S(=O)(=O)c1ccccc1)NC(=O)[C@H](Cc1ccccc1)NC(=O)N1CCOCC1 [Mu-Phe-MetVSPh, (S)-(E)-3-(4-morpholinecarbonylphenylalanyl)amino-1-phenylsulfonyl-6-thia-1-heptene]
[7]; 25° C., pH 6.2
  k/KI (kirr/KI): 7,000 M^-1 sec^-1
[1]; 25° C., pH 6.2
  k/KI (kirr/KI): 250,000 M^-1 sec^-1
[8]; 25° C., pH 6.5
  k/KI (kirr/KI): 4,000,000 M^-1 sec^-1
[2]
  k/KI (kirr/KI): 111,000 M^-1 sec^-1

## CCCC[C@@H](/C=C/S(=O)(=O)c1ccccc1)NC(=O)[C@H](Cc1ccccc1)NC(=O)N1CCOCC1 [Mu-Phe-NleVSPh, (S)-(E)-3-(4-morpholinecarbonylphenylalanyl)amino-1-phenylsulfonyl-1-heptene]
[7]; 25° C., pH 6.2
  k/KI (kirr/KI): 7,600 M^-1 sec^-1
[1]; 25° C., pH 6.2
  k/KI (kirr/KI): 188,000 M^-1 sec^-1
[8]; [11]
  kobs /[I]* (approximate second-order inactivation constant): 2,300,000 M^-1 sec^-1
[2]
  k/KI (kirr/KI): 77,000 M^-1 sec^-1

## Cl.N[C@H](/C=C/S(=O)(=O)c1ccccc1)Cc1ccccc1 [Phe-VSPh, (S)-(E)-3-amino-4-phenyl-1-phenylsulfonyl-1-butene hydrochloride]
[3]
  kobs /[I]*: < 50 M⁻¹ s⁻¹

## (S)-(E)-3-(4-morpholinecarbonylleucylleucyl)amino-4-(4-hydroxyphenyl)-1-phenylsulfonyl-1-butene [Mu-Leu-Leu-TyrVSPh]
[8]; [11]
  kobs /[I]* (approximate second-order inactivation constant): 25,100 M^-1 sec^-1
[3]
  kobs /[I]*: 10,800 M^-1 sec^-1
[3]; listed as Mu-Leu-Leu-Tyr-VSPh
  kobs /[I]*: 7,600 M^-1 sec^-1

## (S)-(E)-3-(4-morpholinecarbonylphenylalanyl)amino-5-methylsulfonyl-1-phenylsulfonyl-1-pentene [Mu-Phe-Met(O2)VSPh]
[7]; [10]
  kobs /[I]* (approximate second-order inactivation constant): 1,600 M^-1 sec^-1
[1]; 25° C., pH 6.2
  k/KI (kirr/KI): 250,000 M^-1 sec^-1
[8]; 25° C., pH 6.5
  k/KI (kirr/KI): 2,800,000 M^-1 sec^-1
[2]
  k/KI (kirr/KI): 160,000 M^-1 sec^-1

## (S)-(E)-3-(4-morpholinecarbonylvalyl)amino-4-phenyl-1-phenylsulfonyl-1-butene [Mu-Val-PheVSPh]
[3]
  kobs /[I]*: 110 M⁻¹ s⁻¹
